EP2871962B1, “WOOD PROTECTION AGAINST MICROORGANISMS BY LACCASE-CATALYSED IODINATION” (EMPA Eidgenössische Materialprüfungs- und Forschungsanstalt, priority 2012, dated 2013)
Several values for one entry are separate records, joined by “and”; a condition that tells them apart may be missing. Equal entries are not always repeated.

Tests used:
E. coli = test: Biotests 1: stamping test of treated, leached wood on agar; format: cell-based, Escherichia coli (ATCC 11229); settings: wood batch 1 exposed to leaching; 18h contact; mean of grades 0-4 ±SE, n = 3; Mediator = ABTS (10 µM)
Method: (§1) Wood specimens (batch 1: 10 x 10 x 5 mm, length x width x height used in the biotests 1 and batch 2: 20 x 15 x 10 mm used in the biotests 2), free of defects, were extracted longitudinally from boards of Norway spruce trees grown in Switzerland, in order to minimize the influence of natural variability. All specimens were conditioned at 23C°(±1°C) and 50% (±5%) relative humidity (RH) until they reached an equilibrium moisture content of approximately 8-10%. Prior to the wood treatment the specimens were sterilized by autoclaving for 20min at 121°C(±1°C). […]
(§2) The evaluation of the antimicrobial activity against the bacteria E. coli and S. aureus and the yeast S. cerevisiae of the iodinated and polymerised wood was performed in biotests 1. […] Growth on agar plates was visually determined after incubation for 20-28h at the optimal temperature, giving the following growth values: 0 = no growth; 1 = weak growth; 2 = intermediate growth; 3 = strong growth and 4 = stamping area completely overgrown.

S. aureus = test: as above; format: cell-based, Staphylococcus aureus (ATCC 6583); settings: wood batch 1 exposed to leaching; 18h contact; mean of grades 0-4 ±SE, n = 3; Mediator = ABTS (10 µM)
Method: as §1, §2

S. cerevisiae = test: as above; format: cell-based, Saccharomyces cerevisiae A.C. van Wijk (DSM 70449); settings: wood batch 1 exposed to leaching; 18h contact; mean of grades 0-4 ±SE, n = 3; Mediator = ABTS (10 µM)
Method: as §1, §2

[1] = tested on: A. pullulans, C. picea, C. herbarum and D. pinicola; test: Biotests 2: blue stain test of treated wood (EN 152-2, modified); format: cell-based; settings: 6 weeks of incubation, mean of stain categories 0-5 ±SE, n = 6, Mediator = ACS (50 µM); for Blue stain discoloration, Leached: wood batch 2, leached (EN 84); for Blue stain discoloration, Non-leached: wood batch 2, non-leached
Method: (§3) Wood specimens (batch 1: 10 x 10 x 5 mm, length x width x height used in the biotests 1 and batch 2: 20 x 15 x 10 mm used in the biotests 2), free of defects, were extracted longitudinally from boards of Norway spruce trees grown in Switzerland, in order to minimize the influence of natural variability. All specimens were conditioned at 23C°(±1°C) and 50% (±5%) relative humidity (RH) until they reached an equilibrium moisture content of approximately 8-10%. Prior to the wood treatment the specimens were sterilized by autoclaving for 20min at 121°C(±1°C).
The enzymatic wood iodination and polymerisation were carried out by dipping three wood specimens of batch 1 in 30ml or 12 wood specimens of batch 2 in 200ml reaction solution (pH 4-6) containing one of the phenolic compounds (4mM), or potassium iodide (1 or 50mM) in the presence of laccase ([…]) for 18h at room temperature. Furthermore, to test the suitability of HBA (5mM) as mediator some additional experiments were performed. The chemical preservative VP 7/ 260a containing IPBC and propiconazole as active agents was used as a benchmark with a final concentration of 5% (v/v). The wood specimens were treated and used in the biological tests, with the following modifications: • Control = Wood treated with buffer • L = Wood treated with laccase alone • L-M = Wood treated with laccase and mediator • Iso = Wood treated with isoeugenol • Iso-L = Wood treated with isoeugenol and laccase • Iso-L-M = Wood treated with isoeugenol, laccase and mediator • Thy = Wood treated with thymol • Thy-L = Wood treated with thymol and laccase • Thy-L-M = Wood treated with thymol and laccase and mediator • Ix = Wood treated with 1 or 50mM iodide (x = concentration of iodide) • Ix-L = Wood treated with 1 or 50mM iodide and laccase • Ix-L-M = Wood treated with 1 or 50mM iodide, laccase and mediator • VP7 = Wood treated with VP 7/ 260a (IPBC and propiconazole)
After the reaction all wood specimens of batch 1 had undergone a leaching procedure comprising five cycles of incubation in ddH2O (liquid volume min. 10 times the specimen volume, 100rpm, room temperature, 24h) and water exchange. Half of the wood specimens of batch 2 were exposed to leaching for two weeks including nine steps of water changing according to EN 84 (29), the other half was used without leaching in biotests.
The resistance of the treated wood against blue stain and wood decay fungi was determined in biotests 2 according to the European standards EN 152-2 (30) and EN 113 (31) with slight modifications. The EN 152 is a classical test for blue staining, originally intended to determine the effectiveness of a preservative treatment against blue stain in service. The treated wood samples were dipped into a spore suspension of A. pullulans, C. picea, C. herbarum and D. pinicola (cfu: > 10^5) and placed horizontally in a Kolle flask containing vermiculite (18g) which was inoculated additionally with 40ml of the spore suspension. The incubated specimens were stored in an incubation room at 22°C and 70% RH (6 weeks). After incubation the surface was evaluated by classifying the percentage of blue-stain discolouration from 0 to 5 according to Thwaites et al. (32) (Table 1). Table 1: Determination of the blue stain discoloration

O. placenta [2] = test: Biotests 2: mini-wood block decay test (comparable with EN 113), mass loss; format: cell-based, Oligoporus placenta; settings: wood batch 2, non-leached and leached, 12 weeks incubation; numbers only in Figure 2
Method: as §3
(§4) The enzymatic wood iodination and polymerisation were carried out by dipping three wood specimens of batch 1 in 30ml or 12 wood specimens of batch 2 in 200ml reaction solution (pH 4-6) containing one of the phenolic compounds (4mM), or potassium iodide (1 or 50mM) in the presence of laccase (10U ml^-1) and either 10µM ABTS for batch 1 or 100µM ACS for batch 2 under shaking (100rpm) for 18h at room temperature. […]
(§5) The treated wood was aseptically added to fully colonised Petri dishes (135mm diameter, 2% malt extract agar (MEA)) by O. placenta and T. versicolor respectively and incubated at 22C° and 70% RH. The ability of the wood-decay fungi to degrade the wood was determined gravimetrically after incubation periods of 6 and 12 weeks and expressed as mass loss (%) according to EN 113 (31): Mass loss(%) = (m0 −m1)/(m0)⋅100 [formula] […]

T. versicolor [3] = test: as above; format: cell-based, Trametes versicolor; settings: wood batch 2, non-leached and leached, 12 weeks incubation; numbers only in Figure 2
Method: as §3, §4, §5

A. alternata = test: Growth inhibition on supplemented malt extract agar plates (Example 1); format: cell-based; settings: 2% MEA; phenolic derivatives 4mM, VP 7/ 260a 5% (v/v); without wood; ±SE, n = 3
D. pinicola = test: as above; format: cell-based, Discula pinicola; settings: 2% MEA; phenolic derivatives 4mM, VP 7/ 260a 5% (v/v); without wood; ±SE, n = 3
Method: (§6) In addition to the mentioned biotests 2 the antimicrobial activity of the reaction derivatives without wood was evaluated on agar plates (5), excluding the laccase-catalysed iodine solution. It was assumed that the iodine molecules would react with starch from malt to form polyiodide chains, which would prevent the antimicrobial effect (33). The laccase catalysis of the phenols was performed under shaking for 18h at room temperature as described above and the phenolic derivatives were added to 2% MEA after autoclaving to a final concentration of 4mM. The fungicide VP 7/ 260a were added to a concentration of 5% (v/v). The supplemented Petri dishes were inoculated in the centre with a mycelium agar disc (5mm diameter) taken from the sub-margin of 14 day old cultures of the ascomycetes A. pullulans and D. pinicola and the basidiomycetes O. placenta and T. versicolor. The fungal growth was estimated by measuring the colony diameter and the growth inhibition was expressed as % of reference grown on non-supplemented malt agar.

O. placenta [4] = test: as above; format: cell-based, Oligoporus placenta; settings: 2% MEA; phenolic derivatives 4mM, VP 7/ 260a 5% (v/v); without wood; ±SE, n = 3
Method: as §6

T. versicolor [5] = test: as above; format: cell-based, Trametes versicolor; settings: 2% MEA; phenolic derivatives 4mM, VP 7/ 260a 5% (v/v); without wood; ±SE, n = 3
Method: as §6

In the case of `[I-].[K+]` [I50, potassium iodide], the “Growth values after stamping, E. coli” value (E. coli) is reported as 4.0 ±0.0, the “Growth values after stamping, S. aureus” value (S. aureus) is reported as 3.0 ±0.6 and the “Growth values after stamping, S. cerevisiae” value (S. cerevisiae) is reported as 2.7 ±0.3. For the same compound, the “Blue stain discoloration, Leached” value [1] was 3.3 ±0.3 and the “Blue stain discoloration, Non-leached” value [1] was 0.8 ±0.4.

For `CC=Cc1ccc(O)c(OC)c1` [Iso, isoeugenol], the “Growth values after stamping, E. coli” value (E. coli) was 4.0 and 4.0 ±0.0, the “Blue stain discoloration, Leached” value [1] was 3.4 and 3.4 ±0.5 and the “mass loss of wood caused by O. placenta (result in words)” value (O. placenta [2]) was “minor effect”. The “mass loss of wood caused by T. versicolor (result in words)” value (T. versicolor [3]) was “minor effect”, the “Growth inhibition [%] on agar plate compared to control, A. alternata” value (A. alternata) was 100 ±0.0% and the “Growth inhibition [%] on agar plate compared to control, D. pinicola” value (D. pinicola) was 100 ±0.0%. The “Growth inhibition [%] on agar plate compared to control, O. placenta” value (O. placenta [4]) was 100 ±0.0% and the “Growth inhibition [%] on agar plate compared to control, T. versicolor” value (T. versicolor [5]) was 100 ±0.0%.

In the case of `Cc1ccc(C(C)C)c(O)c1` [Thy, thymol], the “Blue stain discoloration, Leached” value [1] is reported as 3.5 and 3.5 ±0.3, the “Blue stain discoloration, Non-leached” value [1] is reported as 2.5 and 2.5 ±0.6 and the “mass loss of wood caused by O. placenta (result in words)” value (O. placenta [2]) is reported as “minor effect”. For the same compound, the “mass loss of wood caused by T. versicolor (result in words)” value (T. versicolor [3]) was “minor effect”, the “Growth inhibition [%] on agar plate compared to control, A. alternata” value (A. alternata) was 100 ±0.0% and the “Growth inhibition [%] on agar plate compared to control, D. pinicola” value (D. pinicola) was 100 ±0.0%. For the same compound, the “Growth inhibition [%] on agar plate compared to control, O. placenta” value (O. placenta [4]) was 100 ±0.0% and the “Growth inhibition [%] on agar plate compared to control, T. versicolor” value (T. versicolor [5]) was 100 ±0.0%.
